Source: patent US12201610B2, “Compositions comprising aticaprant” (Janssen Pharmaceuticals, Inc., priority 2022, dated 2025)
Like-named read-outs stand apart in the source and are kept apart here. Marks after values point to notes of the source that are not given here.

Key:
[1] = Plasma Cmax of aticaprant in subjects with MDD (Example 6); format: in vivo; details: human, oral, 10 mg, 10 mg once daily, read-out: Cmax, Arithmetic Mean (SD)
From the text: vi. To assess the plasma PK of aticaprant in subjects with MDD and explore its relationship with efficacy and safety parameters.
Cmax is defined as maximum plasma concentration of aticaprant. […] Here ‘N’ (number of subjects analyzed) includes the number of subjects evaluable for this endpoint. Here ‘n’ (number analyzed) included all subjects evaluable for specified time point categories.

[2] = Phase 1 PK Part 2: relative bioavailability, dose proportionality, food effect of milled API tablet; format: in vivo, human
Experimental: This is a Phase 1, open-label, single dose, multicenter, 4-part study in healthy adult participants.
Potential participants will be screened from Day −28 to Day −2 to determine participants' eligibility for study participation. For Part 1, qualified participants will be admitted on Day −1 of each treatment period and will remain in-house for the total duration of the treatment (Day −1 until Day 5, with single-dose treatment on Day 1 and 96 hours of PK), whereas for Part 2, PK sampling will be done up to 120 hours (Day 6). Each dosed participant will have a safety follow-up on Day 10 to Day 14 after last dose of the study intervention.
The Part 2 of the study involves determination of relative bioavailability for tablet (Formulation Concept 2, i.e., milled (microfine) aticaprant formulation; see Table 10) and capsule formulations (see Example 6, study design, for description of capsule formulation) and dose proportionality and food effect for tablet formulation (Formulation Concept 2) in healthy adult participants (FIG. 26). Part 2 will consist of Subpart 2A and Subpart 2B consisting of a total of 4 periods. […] Participants will be assigned to 1 of 6 treatment sequences (Table 55) and will be administered the 3 treatments in a 3-way crossover. The same 24 participants who complete Subpart 2A will be enrolled in Subpart 2B. Subpart 2B consists of a fourth period to evaluate the food effect of a single dose of 10 mg aticaprant administered as 1×10 mg oral tablet (Formulation Concept 2) under fed conditions (Treatment H; Tables 54 and 56). A preliminary PK analysis will be conducted at the end of the food effect part (Subpart 2B) for all the periods from Part 2 and will include the food effect data.
For each individual participant, there will be a washout period of at least 7 days for Part 1 and at least 8 days for Part 2 between subsequent intakes of the study intervention. Day 1 of a treatment period (day of study intervention intake) is the first day of the washout period (also in between the study parts, if applicable).
Participants will be fasting in Part 1A and Part 2A. Participants will have been fed in Parts 1B and 2B. For a fasted condition, participants will fast (nothing to cat or drink except noncarbonated water) overnight for at least 10 hours before and until 4 hours after study intervention administration during each fasted treatment period. Approximately, 4 hours post-dose and after the 4-hour PK sampling, a standard lunch will be served at the study-site. Intake of water is allowed until 2 hours before the intake of the study intervention. Thereafter, water intake is only allowed for study intervention intake and for breakfast, if applicable. Drinking of water is allowed ad libitum from approximately 2 hours after dosing. For a fed condition, participants will consume, after an overnight fast (at least 10 hours), a standardized high-fat breakfast within a 20-minute period. […] Study intervention will be administered approximately 30 minutes after the start of the breakfast.
In Parts 1 and 2, plasma concentrations will be determined for aticaprant. Blood samples for determination of plasma concentrations of aticaprant will be collected predose and at the postdose time points starting on Day 1 as indicated in the Tables 57-58.
The following plasma PK parameters of aticaprant will be determined. A noncompartmental model with extravascular input will be used for the pharmacokinetic analysis.
Based on the individual concentration-time data, using the actual sampling times, the following PK parameters will be derived for aticaprant: […]

[3] = Dose proportionality: Treatment G (5 mg milled API tablet normalized to 10 mg, Test)/Treatment F (10 mg, Reference), fasting
[4] = Food effect: Treatment H (high-fat diet, Test)/Treatment F (fasted, Reference), 10 mg milled API tablet
[5] = Relative BA: Treatment F (10 mg milled API tablet, Test)/Treatment E (2 × 5 mg capsule, Reference), fasting
[6] = Treatment E: 2 × 5 mg oral capsule, fasting, mean
[7] = Treatment F: 1 × 10 mg Formulation Concept 2 (milled API tablet), fasting, mean (SD)
[8] = Treatment G (1 × 5 mg Formulation Concept 2, fasting), dose normalized to 10 mg, mean (SD)
[9] = Treatment G: 1 × 5 mg Formulation Concept 2 (milled API tablet), fasting, mean
[10] = Treatment H: 1 × 10 mg Formulation Concept 2 (milled API tablet), after high-fat breakfast, mean

Cc1cc(C)cc(C2CCCN2Cc2ccc(Oc3ccc(C(N)=O)cc3F)cc2)c1 (stereo not shown) [aticaprant, 3-fluoro-4-4-2-(3,5-dimethylphenyl)pyrrolidin-1-yl-methylphenoxybenzamide]
Cmax ([1]; Week 1, eITT): 32.7 ± 10.9 ng/mL
Cmax ([1]; Week 3, eITT): 33.5 ± 11.1 ng/mL
Cmax ([1]; Week 6, eITT): 34.3 ± 11.1 ng/mL
Geometric Mean Cmax ([2]; Dose proportionality, completers, Treatment G (Test): 1 × 5 mg Formulation Concept 2, fasting, Dose Normalized to 10 mg): 32.5 ng/mL
Ratio of Geometric Means, AUClast [2, 3]: 104.15%
Ratio of Geometric Means, AUC∞ [2, 3]: 106.40%
Ratio of Geometric Means, Cmax [2, 3]: 105.13%
Ratio of Geometric Means, AUClast [2, 4]: 134.90%
Ratio of Geometric Means, AUC∞ [2, 4]: 135.55%
Ratio of Geometric Means, Cmax [2, 4]: 107.30%
Ratio of Geometric Means, AUClast [2, 5]: 94.31%
Ratio of Geometric Means, AUC∞ [2, 5]: 93.66%
Ratio of Geometric Means, Cmax [2, 5]: 102.30%
% AUC∞, ex [2, 6]: 5.02%
CL/F [2, 6]: 34.8 L/h
λz [2, 6]: 0.024 h⁻¹
% AUC∞, ex [2, 7]: 5.50 (3.17) %
CL/F [2, 7]: 35.8 (12.1) L/h
Cmax [2, 7]: 32.4 (7.39) ng/mL
λz [2, 7]: 0.024 (0.007) 1/h
AUClast, G Dose Normalized [2, 8]: 314 (160) h * ng/mL
AUC∞, G Dose Normalized [2, 8]: 308 (74.1)^a h * ng/mL
Cmax, G Dose Normalized [2, 8]: 34.7 (11.6) ng/mL
% AUC∞, ex [2, 9]: 6.93%
CL/F [2, 9]: 34.7 L/h
λz [2, 9]: 0.030 h⁻¹
% AUC∞, ex [2, 10]: 4.92%
CL/F [2, 10]: 27.0 L/h
Cmax [2, 10]: 34.0 ng/mL
λz [2, 10]: 0.025 h⁻¹
AUC(0-t) ([2]; human, plasma, oral, 5 mg, Dose proportionality, completers, Treatment G (Test): 1 × 5 mg Formulation Concept 2, fasting, Dose Normalized to 10 mg, read-out: Geometric Mean AUClast): 285 ng·h/mL
AUC(0-inf) ([2]; human, plasma, oral, 5 mg, Dose proportionality, completers, Treatment G (Test): 1 × 5 mg Formulation Concept 2, fasting, Dose Normalized to 10 mg, read-out: Geometric Mean AUC∞): 296 ng·h/mL
half-life ([2]; human, plasma, oral, 5 mg, Treatment G: 1 × 5 mg Formulation Concept 2 (milled API tablet), fasting, mean): 26.6 h
AUC(0-t) ([2]; human, plasma, oral, 5 mg, Treatment G: 1 × 5 mg Formulation Concept 2 (milled API tablet), fasting, mean, read-out: AUClast): 157 ng·h/mL
AUC(0-inf) ([2]; human, plasma, oral, 5 mg, Treatment G: 1 × 5 mg Formulation Concept 2 (milled API tablet), fasting, mean, read-out: AUC∞): 154 ng·h/mL
Cmax ([2]; human, plasma, oral, 5 mg, Treatment G: 1 × 5 mg Formulation Concept 2 (milled API tablet), fasting, mean, read-out: Cmax): 17.4 ng/mL
Tmax ([2]; human, plasma, oral, 5 mg, Treatment G: 1 × 5 mg Formulation Concept 2 (milled API tablet), fasting, median): 1 h
AUC(0-t) ([2]; human, plasma, oral, 10 mg, Dose proportionality, completers, Treatment F (Reference): 1 × 10 mg Formulation Concept 2, fasting, read-out: Geometric Mean AUClast): 274 ng·h/mL
AUC(0-inf) ([2]; human, plasma, oral, 10 mg, Dose proportionality, completers, Treatment F (Reference): 1 × 10 mg Formulation Concept 2, fasting, read-out: Geometric Mean AUC∞): 279 ng·h/mL
Cmax ([2]; human, plasma, oral, 10 mg, Dose proportionality, completers, Treatment F (Reference): 1 × 10 mg Formulation Concept 2, fasting, read-out: Geometric Mean Cmax): 30.9 ng/mL
AUC(0-t) ([2]; human, plasma, oral, 10 mg, Food effect, completers, Treatment F (Reference): 1 × 10 mg milled API tablet, fasted, read-out: Geometric Mean AUClast): 279 ng·h/mL
AUC(0-inf) ([2]; human, plasma, oral, 10 mg, Food effect, completers, Treatment F (Reference): 1 × 10 mg milled API tablet, fasted, read-out: Geometric Mean AUC∞): 280 ng·h/mL
Cmax ([2]; human, plasma, oral, 10 mg, Food effect, completers, Treatment F (Reference): 1 × 10 mg milled API tablet, fasted, read-out: Geometric Mean Cmax): 31.3 ng/mL
AUC(0-t) ([2]; human, plasma, oral, 10 mg, Food effect, completers, Treatment H (Test): 1 × 10 mg milled API tablet, high-fat diet, read-out: Geometric Mean AUClast): 377 ng·h/mL
AUC(0-inf) ([2]; human, plasma, oral, 10 mg, Food effect, completers, Treatment H (Test): 1 × 10 mg milled API tablet, high-fat diet, read-out: Geometric Mean AUC∞): 379 ng·h/mL
AUC(0-t) ([2]; human, plasma, oral, 10 mg, Relative BA, completers, Treatment F (Test): 1 × 10 mg Formulation Concept 2 (milled API tablet), fasting, read-out: Geometric Mean AUClast): 274 ng·h/mL
AUC(0-inf) ([2]; human, plasma, oral, 10 mg, Relative BA, completers, Treatment F (Test): 1 × 10 mg Formulation Concept 2 (milled API tablet), fasting, read-out: Geometric Mean AUC∞): 279 ng·h/mL
Cmax ([2]; human, plasma, oral, 10 mg, Relative BA, completers, Treatment F (Test): 1 × 10 mg Formulation Concept 2 (milled API tablet), fasting, read-out: Geometric Mean Cmax): 30.9 ng/mL
half-life ([2]; human, plasma, oral, 10 mg, Treatment F: 1 × 10 mg Formulation Concept 2 (milled API tablet), fasting, mean (SD)): 31 h
AUC(0-t) ([2]; human, plasma, oral, 10 mg, Treatment F: 1 × 10 mg Formulation Concept 2 (milled API tablet), fasting, mean (SD), read-out: AUClast): 297 ng·h/mL
AUC(0-inf) ([2]; human, plasma, oral, 10 mg, Treatment F: 1 × 10 mg Formulation Concept 2 (milled API tablet), fasting, mean (SD), read-out: AUC∞): 318 ng·h/mL
Tmax ([2]; human, plasma, oral, 10 mg, Treatment F: 1 × 10 mg Formulation Concept 2 (milled API tablet), fasting, median (range)): 1.5 h
half-life ([2]; human, plasma, oral, 10 mg, Treatment H: 1 × 10 mg Formulation Concept 2 (milled API tablet), after high-fat breakfast, mean): 30.8 h
AUC(0-t) ([2]; human, plasma, oral, 10 mg, Treatment H: 1 × 10 mg Formulation Concept 2 (milled API tablet), after high-fat breakfast, mean, read-out: AUClast): 388 ng·h/mL
AUC(0-inf) ([2]; human, plasma, oral, 10 mg, Treatment H: 1 × 10 mg Formulation Concept 2 (milled API tablet), after high-fat breakfast, mean, read-out: AUC∞): 388 ng·h/mL
Tmax ([2]; human, plasma, oral, 10 mg, Treatment H: 1 × 10 mg Formulation Concept 2 (milled API tablet), after high-fat breakfast, median): 2 h
AUC(0-t) ([2]; human, plasma, po, 10 mg, Relative BA, completers, Treatment E (Reference): 2 × 5 mg oral capsule, fasting, read-out: Geometric Mean AUClast): 291 ng·h/mL
AUC(0-inf) ([2]; human, plasma, po, 10 mg, Relative BA, completers, Treatment E (Reference): 2 × 5 mg oral capsule, fasting, read-out: Geometric Mean AUC∞): 297 ng·h/mL
Cmax ([2]; human, plasma, po, 10 mg, Relative BA, completers, Treatment E (Reference): 2 × 5 mg oral capsule, fasting, read-out: Geometric Mean Cmax): 30.2 ng/mL
half-life ([2]; human, plasma, po, 10 mg, Treatment E: 2 × 5 mg oral capsule, fasting, mean): 30.5 h
AUC(0-t) ([2]; human, plasma, po, 10 mg, Treatment E: 2 × 5 mg oral capsule, fasting, mean, read-out: AUClast): 308 ng·h/mL
AUC(0-inf) ([2]; human, plasma, po, 10 mg, Treatment E: 2 × 5 mg oral capsule, fasting, mean, read-out: AUC∞): 307 ng·h/mL
Cmax ([2]; human, plasma, po, 10 mg, Treatment E: 2 × 5 mg oral capsule, fasting, mean, read-out: Cmax): 31.7 ng/mL
Tmax ([2]; human, plasma, po, 10 mg, Treatment E: 2 × 5 mg oral capsule, fasting, median): 2 h
